{
  "source": "paper PMC4309172",
  "about": "“Binding of a fluorescence reporter and a ligand to an odorant-binding protein of the yellow fever mosquito, Aedes aegypti” (F1000Research, 2015)",
  "key": {"[1]": {"molecular_target": "T1, AaegOBP1 (odorant-binding protein, also named AaegOBP39) (Aedes aegypti, UniProt Q6Y2R8)", "T1 construct": "recombinant AaegOBP1 (AY189223), periplasmic expression in BL21(DE3), purified and delipidated", "T1 sequence (Q6Y2R8 19-143)": "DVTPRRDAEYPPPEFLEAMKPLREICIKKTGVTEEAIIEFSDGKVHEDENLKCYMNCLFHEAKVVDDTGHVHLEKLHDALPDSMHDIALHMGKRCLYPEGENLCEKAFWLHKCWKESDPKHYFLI", "assay": "NPN fluorescence displacement/quenching, pH […]; Kd from decreasing phase only ([…]), fluorescence rises at higher doses"}, "[2]": {"molecular_target": "T1, AaegOBP1 (odorant-binding protein, also named AaegOBP39)", "assay": "direct fluorescence titration with NPN, pH […] (Kd […] at pH […])"}},
  "data": [
    {"smiles": "CCCCCCCCCC[C@H](OC(C)=O)[C@H]1CCCC(=O)O1", "note": "(racemic) [MOP, (5 R,6 S)-6-acetoxy-5-hexadecanolide]", "values": [
      {"measurement": "Kd", "setting": "[1]", "result": "2.64 ± 0.16", "unit": "µM"}
    ]},
    {"smiles": "c1ccc(Nc2cccc3ccccc23)cc1", "note": "[NPN, N-phenyl-1-naphthylamine]", "values": [
      {"measurement": "Kd", "setting": "[2]", "result": "3.31 ± 0.48", "unit": "µM"}
    ]}
  ]
}
